Patent US20260285850A1, “SUBSTITUTED OXAZOLIDINONES AND IMIDAZOLINONES AS HERBICIDES” (FMC CORPORATION, priority 2023, published 2026)

Experiments:
Format in all cases: in vivo
[1] = tested on: barnyardgrass (Echinochloa crus-galli); experiment: Test A preemergence soil spray, visual injury rating 0-100; conditions: 10 days
How it was run: (§1)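 Grow plants in loam soil blended with sand. Apply formulated compound (non-phytotoxic solvent, surfactant) as a directed soil spray before emergence, or to plants at the one- to two-leaf stage after emergence. Hold in greenhouse 10 days, then rate injury visually versus untreated controls on a 0-100 scale.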

[2] = tested on: blackgrass (Alopecurus myosuroides); experiment: as above; conditions: 10 days
How it was run: as §1

corn (Zea mays) [3] = experiment: as above; conditions: 10 days
How it was run: as §1

[4] = tested on: green foxtail (Setaria viridis); experiment: as above; conditions: 10 days
How it was run: as §1

kochia (Bassia scoparia) [5] = experiment: as above; conditions: 10 days
How it was run: as §1

[6] = tested on: oat, wild (wild oat, Avena fatua); experiment: as above; conditions: 10 days
How it was run: as §1

[7] = tested on: palmer (palmer amaranth, palmer pigweed, Amaranthus palmeri); experiment: as above; conditions: 10 days
How it was run: as §1

[8] = tested on: ragweed (common ragweed, Ambrosia artemisiifolia); experiment: as above; conditions: 10 days
How it was run: as §1

[9] = tested on: ryegrass, Italian (italian ryegrass, Lolium multiflorum); experiment: as above; conditions: 10 days
How it was run: as §1

soybean (Glycine max) [10] = experiment: as above; conditions: 10 days
How it was run: as §1

[11] = tested on: wheat (Triticum aestivum); experiment: as above; conditions: 10 days
How it was run: as §1

[12] = tested on: barnyardgrass (Echinochloa crus-galli); experiment: Test A postemergence application, visual injury rating 0-100
How it was run: as §1

[13] = tested on: blackgrass (Alopecurus myosuroides); experiment: as above
How it was run: as §1

corn (Zea mays) [14] = experiment: as above
How it was run: as §1

[15] = tested on: galium (catchweed bedstraw, Galium aparine); experiment: as above
How it was run: as §1

[16] = tested on: green foxtail (Setaria viridis); experiment: as above
How it was run: as §1

[17] = tested on: horseweed (Erigeron canadensis); experiment: as above
How it was run: as §1

kochia (Bassia scoparia) [18] = experiment: as above
How it was run: as §1

[19] = tested on: oat, wild (wild oat, Avena fatua); experiment: as above
How it was run: as §1

[20] = tested on: palmer (palmer amaranth, palmer pigweed, Amaranthus palmeri); experiment: as above
How it was run: as §1

[21] = tested on: ragweed (common ragweed, Ambrosia artemisiifolia); experiment: as above
How it was run: as §1

[22] = tested on: ryegrass, Italian (italian ryegrass, Lolium multiflorum); experiment: as above
How it was run: as §1

soybean (Glycine max) [23] = experiment: as above
How it was run: as §1

[24] = tested on: wheat (Triticum aestivum); experiment: as above
How it was run: as §1

[25] = tested on: barnyardgrass (Echinochloa crusgalli); experiment: Test B flooded paddy test, visual plant response rating 0-100; conditions: 250 g ai/ha, Flood, applied to paddy water, evaluated after 13 days
How it was run: (§2)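 2-leaf plants; flood 3 cm over soil; compound dosed into paddy water; depth kept constant; greenhouse 13 d; visual scoring vs controls. Dash = no result.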

[26] = tested on: ducksalad (Heteranthera limosa); experiment: as above; conditions: 250 g ai/ha, Flood, applied to paddy water, evaluated after 13 days
How it was run: as §2

rice (Oryza sativa) = experiment: as above; conditions: 250 g ai/ha, Flood, applied to paddy water, evaluated after 13 days
How it was run: as §2

[27] = tested on: sedge, umbrella (small-flower umbrella sedge, Cyperus difformis); experiment: as above; conditions: 250 g ai/ha, Flood, applied to paddy water, evaluated after 13 days
How it was run: as §2

[28] = 62 g ai/ha, 0 = no effect, 100 = complete control
[29] = 62 g ai/ha, postemergence, 10 days, 0 = no effect, 100 = complete control
[30] = Postemergence, 16 g ai/ha, greenhouse 10 days, 0 no effect, 100 complete control

In the case of `COC(=O)C1C=CC(NC(=O)C2(C)CN(c3cc(F)cc(F)c3)C(=O)O2)C1` (stereo not shown) [Compound 92], the “Barnyardgrass plant response rating” value ([1]; 16 g ai/ha, 0 to 100 scale) is reported as 0, the “Barnyardgrass plant response rating (0-100)” value [1, 28] is reported as 0 and the “Blackgrass plant response rating” value ([2]; 16 g ai/ha, 0 to 100 scale) is reported as 0. The “Blackgrass plant response rating (0-100)” value [2, 28] was 0, the “Corn plant response rating” value (corn (Zea mays) [3]; 16 g ai/ha, 0 to 100 scale) was 0 and the “Corn plant response rating (0-100)” value (corn (Zea mays) [3]; [28]) was 0. The “Foxtail, Green plant response rating” value ([4]; 16 g ai/ha, 0 to 100 scale) was 0, the “Foxtail, Green plant response rating (0-100)” value [4, 28] was 0 and the “Kochia plant response rating” value (kochia (Bassia scoparia) [5]; 16 g ai/ha, 0 to 100 scale) was 0. For the same molecule, the “Kochia plant response rating (0-100)” value (kochia (Bassia scoparia) [5]; [28]) was 0, the “Oat, Wild plant response rating” value ([6]; 16 g ai/ha, 0 to 100 scale) was 0 and the “Oat, Wild plant response rating (0-100)” value [6, 28] was 0. The “Pigweed, Palmer plant response rating” value ([7]; 16 g ai/ha, 0 to 100 scale) was 0, the “Pigweed, Palmer plant response rating (0-100)” value [7, 28] was 70 and the “Ragweed plant response rating” value ([8]; 16 g ai/ha, 0 to 100 scale) was 0. The “Ragweed plant response rating (0-100)” value [8, 28] was 0, the “Ryegrass, Italian plant response rating” value ([9]; 16 g ai/ha, 0 to 100 scale) was 0 and the “Ryegrass, Italian plant response rating (0-100)” value [9, 28] was 0. For the same molecule, the “Soybean plant response rating” value (soybean (Glycine max) [10]; 16 g ai/ha, 0 to 100 scale) was 0, the “Soybean plant response rating (0-100)” value (soybean (Glycine max) [10]; [28]) was 0 and the “Wheat plant response rating” value ([11]; 16 g ai/ha, 0 to 100 scale) was 0. For the same molecule, the “Wheat plant response rating (0-100)” value [11, 28] was 0, the “Barnyardgrass plant response rating (0-100)” value [12, 29] was 0 and the “Barnyardgrass plant response rating (0 to 100 scale)” value [12, 30] was 0. For the same molecule, the “Blackgrass plant response rating (0-100)” value [13, 29] was 0, the “Blackgrass plant response rating (0 to 100 scale)” value [13, 30] was 0 and the “Corn plant response rating (0-100)” value (corn (Zea mays) [14]; [29]) was 0. The “Corn plant response rating (0 to 100 scale)” value (corn (Zea mays) [14]; [30]) was 0, the “Galium plant response rating (0-100)” value [15, 29] was 0 and the “Galium plant response rating (0 to 100 scale)” value [15, 30] was 0. The “Foxtail, Green plant response rating (0-100)” value [16, 29] was 0, the “Foxtail, Green plant response rating (0 to 100 scale)” value [16, 30] was 0 and the “Horseweed plant response rating (0-100)” value [17, 29] was 0. The “Horseweed plant response rating (0 to 100 scale)” value [17, 30] was 0, the “Kochia plant response rating (0-100)” value (kochia (Bassia scoparia) [18]; [29]) was 0 and the “Kochia plant response rating (0 to 100 scale)” value (kochia (Bassia scoparia) [18]; [30]) was 0. For the same molecule, the “Oat, Wild plant response rating (0-100)” value [19, 29] was 0, the “Oat, Wild plant response rating (0 to 100 scale)” value [19, 30] was 0 and the “Pigweed, Palmer plant response rating (0-100)” value [20, 29] was 0. The “Pigweed, Palmer plant response rating (0 to 100 scale)” value [20, 30] was 0, the “Ragweed plant response rating (0-100)” value [21, 29] was 20 and the “Ragweed plant response rating (0 to 100 scale)” value [21, 30] was 0. For the same molecule, the “Ryegrass, Italian plant response rating (0-100)” value [22, 29] was 0, the “Ryegrass, Italian plant response rating (0 to 100 scale)” value [22, 30] was 0 and the “Soybean plant response rating (0-100)” value (soybean (Glycine max) [23]; [29]) was 0. The “Soybean plant response rating (0 to 100 scale)” value (soybean (Glycine max) [23]; [30]) was 0, the “Wheat plant response rating (0-100)” value [24, 29] was 0 and the “Wheat plant response rating (0 to 100 scale)” value [24, 30] was 0. The “Plant response rating, Barnyardgrass (0 to 100 scale, 0 is no effect and 100 is complete control)” value [25] was 0, the “Plant response rating, Ducksalad (0 to 100 scale, 0 is no effect and 100 is complete control)” value [26] was 0 and the “Plant response rating, Rice (0 to 100 scale, 0 is no effect and 100 is complete control)” value (rice (Oryza sativa)) was 0. For the same molecule, the “Plant response rating, Sedge, Umbrella (0 to 100 scale, 0 is no effect and 100 is complete control)” value [27] was 0.
